Where “and” joins values, the source holds several entries; their conditions need not be identical. Identical values can stand only once. Inconclusive results are not listed.
System: CD8F1 mice, subcutaneous mammary adenocarcinoma, T/C%
Assay: NCI In Vivo Anticancer Drug Screen. Data for tumor model Mammary Adenocarcinoma CD8F1 (subcutaneous) in CD8F1
Details: higher = larger tumour
Procedure, shortened: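 Compound-treated versus vehicle-treated mice with transplantable tumors; survival or tumor size compared as T/C.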

[1] = endpoint: median tumor weight change, dose: 125.0 mg/kg/injection, schedule: Q01DX001 (ip), vehicle: saline with Tween-80
[2] = endpoint: median tumor weight change, dose: 250.0 mg/kg/injection, schedule: Q01DX001 (ip), vehicle: saline with Tween-80
[3] = endpoint: median tumor weight change, dose: 500.0 mg/kg/injection, schedule: Q01DX001 (ip), vehicle: saline with Tween-80
[4] = endpoint: median tumor weight (est.), dose: 6.25 mg/kg/injection, schedule: Q07DX005 (ip), vehicle: Klucel (hydroxypropylcellulose) (HPC)
[5] = endpoint: median tumor weight (est.), dose: 50.0 mg/kg/injection, schedule: Q07DX005 (ip), vehicle: Klucel (hydroxypropylcellulose) (HPC)
[6] = endpoint: median tumor weight (est.), dose: 100.0 mg/kg/injection, schedule: Q07DX005 (ip), vehicle: Klucel (hydroxypropylcellulose) (HPC)
[7] = endpoint: median tumor weight change, dose: 1000.0 mg/kg/injection, schedule: Q01DX001 (ip), vehicle: saline with Tween-80

For `O=C1NC2(CCCCC2)C(=O)N1CCN(CCCl)CCCl`, the T/C (endpoint: mean tumor weight, dose: 3.0 mg/kg/injection, schedule: Q07DX005 (ip), vehicle: Klucel (hydroxypropylcellulose) (HPC)) was 81 % of control, the T/C (endpoint: mean tumor weight, dose: 6.0 mg/kg/injection, schedule: Q07DX005 (ip), vehicle: Klucel (hydroxypropylcellulose) (HPC)) was 82 % of control and the T/C (endpoint: mean tumor weight, dose: 12.0 mg/kg/injection, schedule: Q07DX005 (ip), vehicle: Klucel (hydroxypropylcellulose) (HPC)) was 42 % of control. For the same compound, the T/C (endpoint: mean tumor weight, dose: 24.0 mg/kg/injection, schedule: Q07DX005 (ip), vehicle: Klucel (hydroxypropylcellulose) (HPC)) was 26 % of control, the T/C (endpoint: median tumor weight (est.), dose: 3.0 mg/kg/injection, schedule: Q07DX005 (ip), vehicle: saline) was 68 % of control and the T/C (endpoint: median tumor weight (est.), dose: 6.0 mg/kg/injection, schedule: Q07DX005 (ip), vehicle: saline) was 75 % of control. The T/C (endpoint: median tumor weight (est.), dose: 12.0 mg/kg/injection, schedule: Q07DX005 (ip), vehicle: saline) was 45 % of control, the T/C (endpoint: median tumor weight (est.), dose: 24.0 mg/kg/injection, schedule: Q07DX005 (ip), vehicle: saline) was 6 % of control and the T/C (endpoint: median tumor weight change, dose: 9.0 mg/kg/injection, schedule: Q01DX001 (ip), vehicle: saline with Tween-80) was 60 % of control. For the same compound, the T/C (endpoint: median tumor weight change, dose: 9.38 mg/kg/injection, schedule: Q01DX001 (ip), vehicle: saline with Tween-80) was 75 % of control, the T/C (endpoint: median tumor weight change, dose: 18.0 mg/kg/injection, schedule: Q01DX001 (ip), vehicle: saline with Tween-80) was 62 % of control and the T/C (endpoint: median tumor weight change, dose: 37.0 mg/kg/injection, schedule: Q01DX001 (ip), vehicle: saline with Tween-80) was 32 % of control. The T/C (endpoint: median tumor weight change, dose: 75.0 mg/kg/injection, schedule: Q01DX001 (ip), vehicle: saline with Tween-80) was 19 % of control.

`CC(Oc1ccccc1-c1ccccc1)C(=O)N(C)C` (centres undefined) was tested, and the T/C [1] was 70 % of control, the T/C [2] was 89 % of control and the T/C [3] was 95 % of control.

`CCCCc1ccc(-n2c(C)c(COC(=O)NC)c(COC(=O)NC)c2C)cc1` was tested, and the T/C [4] was 118 % of control, the T/C (endpoint: median tumor weight (est.), dose: 12.5 mg/kg/injection, schedule: Q07DX005 (ip), vehicle: Klucel (hydroxypropylcellulose) (HPC)) was 63 % of control and the T/C (endpoint: median tumor weight (est.), dose: 25.0 mg/kg/injection, schedule: Q07DX005 (ip), vehicle: Klucel (hydroxypropylcellulose) (HPC)) was 111 % of control. The T/C [5] was 56 % of control and the T/C [6] was 40 % of control.

In the case of `C=C1C(=O)C2=CC1CCC(=O)C1(C)CCC(OC(C)=O)C(C)(C)C1CC2O` (centres undefined), the T/C (endpoint: median tumor weight change, dose: 37.5 mg/kg/injection, schedule: Q01DX001 (ip), vehicle: Klucel (hydroxypropylcellulose) (HPC)) is reported as 83 % of control, the T/C (endpoint: median tumor weight change, dose: 75.0 mg/kg/injection, schedule: Q01DX001 (ip), vehicle: Klucel (hydroxypropylcellulose) (HPC)) is reported as 88 % of control and the T/C (endpoint: median tumor weight change, dose: 150.0 mg/kg/injection, schedule: Q01DX001 (ip), vehicle: Klucel (hydroxypropylcellulose) (HPC)) is reported as 30 % of control.

`CCC(C(=O)O)C(=O)O.[NH2-].[NH2-].[Pt+2]` was tested, and the T/C (endpoint: median tumor weight change, dose: 15.62 mg/kg/injection, schedule: Q01DX001 (ip), vehicle: saline) was 172 % of control, the T/C (endpoint: median tumor weight change, dose: 16.0 mg/kg/injection, schedule: Q01DX001 (ip), vehicle: saline) was 121 % of control and the T/C (endpoint: median tumor weight change, dose: 31.0 mg/kg/injection, schedule: Q01DX001 (ip), vehicle: saline) was 46 % of control. For the same compound, the T/C (endpoint: median tumor weight change, dose: 31.25 mg/kg/injection, schedule: Q01DX001 (ip), vehicle: saline) was 87 % of control, the T/C (endpoint: median tumor weight change, dose: 62.0 mg/kg/injection, schedule: Q01DX001 (ip), vehicle: saline) was 68 % of control and the T/C (endpoint: median tumor weight change, dose: 62.5 mg/kg/injection, schedule: Q01DX001 (ip), vehicle: saline) was 92 % of control. For the same compound, the T/C (endpoint: median tumor weight change, dose: 125.0 mg/kg/injection, schedule: Q01DX001 (ip), vehicle: saline) was 2 % of control and 26 % of control.

With `CC1=C(/C=C/C(C)=C/C=C/C(C)=C/CO)C(C)(C)CCC1` the T/C (endpoint: median tumor weight (est.), dose: 8.0 mg/kg/injection, schedule: Q07DX005 (ip), vehicle: saline with Tween-80) was 195 % of control and the T/C (endpoint: median tumor weight (est.), dose: 32.0 mg/kg/injection, schedule: Q07DX005 (ip), vehicle: saline with Tween-80) was 118 % of control.

In the case of `Nc1nc(N)c2cc(S(=O)(=O)c3ccccc3)ccc2n1`, the T/C (endpoint: median tumor weight change, dose: 62.5 mg/kg/injection, schedule: Q01DX001 (ip), vehicle: saline with Tween-80) is reported as 102 % of control, the T/C [1] is reported as 109 % of control and the T/C [2] is reported as 67 % of control. For the same compound, the T/C [3] was 42 % of control and the T/C [7] was 40 % of control.

In the case of `CC1(C)CC(=O)C(CSC(=O)c2ccccc2)C(=O)C1`, the T/C [4] is reported as 182 % of control, the T/C (endpoint: median tumor weight (est.), dose: 6.25 mg/kg/injection, schedule: Q07DX005 (ip), vehicle: saline) is reported as 55 % of control and the T/C (endpoint: median tumor weight (est.), dose: 12.5 mg/kg/injection, schedule: Q07DX005 (ip), vehicle: saline) is reported as 102 % of control. For the same compound, the T/C (endpoint: median tumor weight (est.), dose: 25.0 mg/kg/injection, schedule: Q07DX005 (ip), vehicle: saline) was 158 % of control, the T/C [5] was 39 % of control and the T/C (endpoint: median tumor weight (est.), dose: 50.0 mg/kg/injection, schedule: Q07DX005 (ip), vehicle: saline) was 73 % of control. For the same compound, the T/C [6] was 187 % of control, the T/C (endpoint: median tumor weight (est.), dose: 100.0 mg/kg/injection, schedule: Q07DX005 (ip), vehicle: saline) was 64 % of control and the T/C (endpoint: median tumor weight (est.), dose: 200.0 mg/kg/injection, schedule: Q07DX005 (ip), vehicle: Klucel (hydroxypropylcellulose) (HPC)) was 57 % of control.

`COCCCNC1=C(C#N)C(=O)NC(c2cccc([N+](=O)[O-])c2)S1` (centres undefined) was tested, and the T/C [7] was 95 % of control and 110 % of control and the T/C (endpoint: median tumor weight change, dose: 2000.0 mg/kg/injection, schedule: Q01DX001 (ip), vehicle: saline with Tween-80) was 79 % of control.

With `OCC12COCN1COC2` the T/C (endpoint: median tumor weight change, dose: 50.0 mg/kg/injection, schedule: Q01DX001 (ip), vehicle: saline) was 100 % of control, the T/C (endpoint: median tumor weight change, dose: 100.0 mg/kg/injection, schedule: Q01DX001 (ip), vehicle: saline) was 107 % of control and the T/C (endpoint: median tumor weight change, dose: 200.0 mg/kg/injection, schedule: Q01DX001 (ip), vehicle: saline) was 71 % of control. The T/C (endpoint: median tumor weight change, dose: 400.0 mg/kg/injection, schedule: Q01DX001 (ip), vehicle: saline) was 87 % of control and the T/C (endpoint: median tumor weight change, dose: 800.0 mg/kg/injection, schedule: Q01DX001 (ip), vehicle: saline) was 82 % of control.

For `O=C1C=CC(=O)O1` (tested in a mixture with another compound), the T/C (endpoint: median tumor weight (est.), dose: 25.0 mg/kg/injection, schedule: Q07DX004 (ip), vehicle: saline) was 76 % of control, the T/C (endpoint: median tumor weight (est.), dose: 50.0 mg/kg/injection, schedule: Q07DX004 (ip), vehicle: saline) was 61 % of control and the T/C (endpoint: median tumor weight (est.), dose: 100.0 mg/kg/injection, schedule: Q07DX004 (ip), vehicle: saline) was 40 % of control. For the same compound, the T/C (endpoint: median tumor weight (est.), dose: 200.0 mg/kg/injection, schedule: Q07DX004 (ip), vehicle: saline) was 81 % of control and the T/C (endpoint: median tumor weight (est.), dose: 400.0 mg/kg/injection, schedule: Q07DX004 (ip), vehicle: saline) was 94 % of control.

`O=C1C(NCCO)=C(N2CC2)C(=O)C(NCCO)=C1N1CC1` was tested, and the T/C (endpoint: median tumor weight change, dose: 0.62 mg/kg/injection, schedule: Q01DX001 (ip), vehicle: saline) was 73 % of control, the T/C (endpoint: median tumor weight change, dose: 0.63 mg/kg/injection, schedule: Q01DX001 (ip), vehicle: saline) was 36 % of control and the T/C (endpoint: median tumor weight change, dose: 5.0 mg/kg/injection, schedule: Q01DX001 (ip), vehicle: saline) was 25 % of control.

In the case of `C#CCNC1=C(C)C(=O)C2=C(C1=O)[C@H](COC(N)=O)[C@]1(OC)[C@@H]3N[C@@H]3CN21`, the T/C (endpoint: median tumor weight change, dose: 16.0 mg/kg/injection, schedule: Q01DX001 (ip), vehicle: distilled water + Tween-80) is reported as 75 % of control and the T/C (endpoint: median tumor weight change, dose: 31.0 mg/kg/injection, schedule: Q01DX001 (ip), vehicle: distilled water + Tween-80) is reported as 27 % of control.

For `Cc1ccc2nc(-c3ccc4nc(-c5ccc(N=Nc6ccc(-c7nc8ccc(-c9nc%10ccc(C)c(S(=O)(=O)O)c%10s9)cc8s7)cc6)cc5)sc4c3)sc2c1S(=O)(=O)O`, the T/C (endpoint: median tumor weight change, dose: 125.0 mg/kg/injection, schedule: Q01DX001 (ip), vehicle: suspension in saline) was 94 % of control and the T/C (endpoint: median tumor weight change, dose: 250.0 mg/kg/injection, schedule: Q01DX001 (ip), vehicle: suspension in saline) was 62 % of control.

With `CC12C(=O)C=CCC1=CCC1C2CCC2(O)C(=O)OC3(C)C4CC5(C)C(COC16OC23C5C6=O)C(=O)O4` (centres undefined) the T/C (endpoint: median tumor weight change, dose: 250.0 mg/kg/injection, schedule: Q01DX001 (ip), vehicle: Klucel (hydroxypropylcellulose) (HPC)) was 96 % of control and the T/C (endpoint: median tumor weight change, dose: 500.0 mg/kg/injection, schedule: Q01DX001 (ip), vehicle: Klucel (hydroxypropylcellulose) (HPC)) was 35 % of control.

In the case of `CC(=O)Oc1[nH]c(=O)c2cccc3c2c1CCC3`, the T/C (endpoint: median tumor weight change, dose: 450.0 mg/kg/injection, schedule: Q01DX001 (ip), vehicle: saline with Tween-80) is reported as 155 % of control and the T/C (endpoint: median tumor weight change, dose: 1800.0 mg/kg/injection, schedule: Q01DX001 (ip), vehicle: saline with Tween-80) is reported as 99 % of control.

`CCCCOC(=O)/C=C(\Br)C(=O)OCCCC` was tested, and the T/C (endpoint: median tumor weight (est.), dose: 12.5 mg/kg/injection, schedule: Q07DX005 (ip), vehicle: saline with Tween-80) was 115 % of control, the T/C (endpoint: median tumor weight (est.), dose: 25.0 mg/kg/injection, schedule: Q07DX005 (ip), vehicle: saline with Tween-80) was 95 % of control and 119 % of control and the T/C (endpoint: median tumor weight (est.), dose: 100.0 mg/kg/injection, schedule: Q07DX005 (ip), vehicle: saline with Tween-80) was 100 % of control and 119 % of control. The T/C (endpoint: median tumor weight (est.), dose: 200.0 mg/kg/injection, schedule: Q07DX005 (ip), vehicle: saline with Tween-80) was 114 % of control.

From PubChem BioAssay AID220 (DTP/NCI, 2004)
